pEC50: −log10 of the molar value.
system: Nrf2 (Keap1-NRF2 nuclear translocation); assay: U2OS translocation assay (PathHunter U2OS Keap1-NRF2 Nuclear Translocation Cell Line); format: cell-based; conditions: Homo sapiens, U2OS, 3 h, read-out: CELLULAR U2OS EC50 (nM), U2OS Keap1-NRF2 nuclear translocation cells, 3 h incubation, luminescence, normalized between 1% DMSO and 10 μM andrographolide
Method: EXAMPLE 84: U2OS—TRANSLOCATION ASSAY
U2OS cell have been stably transduced using MMLV-derived retroviral vector, to overexpress Nrf2-Enzyme Donor fusion protein, and Acceptor Enzyme in the nucleus (PathHunter® U2OS Keap1-NRF2 Nuclear Translocation Cell Line, Ref.93-0821C3, DiscoverX).
PathHunter U2OS cells were grown in Minimum Essential Medium (MEM) (Ref.30-2003, ATCC), 10% FBS (Ref.P30-193306, PanBiotech), 500 μg/ml Geneticine, 250 μg/ml hygromycine, 0.25 μg/ml puromycine (10131-027, 10687-010 and Ref.A1113802 respectively, Life Technologies).
The night before experiment, cells were harvested using Tryple Xpress (Ref.126905, Bibco) for 5 min at 37° C., resuspended in Opti-MEM™ (Ref.31985-047, Gibco), 1% FBS (Ref.P30-193306, PanBiotech) and then plated into 384 wells plates (Ref.6007680, Perkin Elmer) at the density of 7 500 cells/well in 20 μl. Cell are stored over night at 37° C., 5% CO2 until used. Compounds in 100% DMSO (0.315 μl/well) were resuspended in 20 μl MEM, 1% FBS, 3.4% DMSO. Compounds and andrographolide (10 μM final concentration; Ref.365645-500MG, Aldrich)) as positive control, were dispensed on cell, 5 μl /well, and then incubated for 3 h at 37° C. and 5% CO2. After incubation, Path hunter reagents were dispensed on cells (12 μl /well, Ref.93-0001, DiscoverX) and incubated for 60 min at room temperature in the dark.
Then, luminescence signal was measured using multimodal reader (Pherastar, BMG Labtech). Data were normalized between 1% DMSO (basal signal) and 10 μM andrographolide (positive signal) and analyzed using Activity Base software.

SMILES | EC50 [nM]
Cc1ccc2cc1CN1Cc3cc(c(Cl)cc3OS1(=O)=O)OCCOCCn1nnc3c(C)c(ccc31)C2CC(=O)O (stereo not shown) [Example 75, [24-Chloro-4,32-dimethyl-28,28-dioxo-19,22,27-trioxa-28λ^6-thia-1,14,15,16-tetraazahexacyclo[21.5.3.1^3,70.1^9,130.0^12,160.0^26,30]tritriaconta-3(33),4,6,9(32),10,12,14,23,25,30-decaen-8-yl]acetic acid] | 59.6
Cc1ccc2cc1CN1Cc3cc(ccc3OS1(=O)=O)OCCCCn1nnc3c(C)c(ccc31)[C@H]2CC(=O)Nc1cncnc1 [Example 79b, 2-[(8S)-4,31-dimethyl-27,27-dioxo-21,26-dioxa-27λ^6-thia-1,14,15,16-tetraazahexacyclo[20.5.3.1^3,70.1^9,130.0^12,160.0^25,29]dotriaconta-3(32),4,6,9(31),10,12,14,22,24,29-decaen-8-yl]-N-(pyrimidin-5-yl)acetamide] | 296
Cc1ccc2cc1CN1Cc3cc(ccc3OS1(=O)=O)OCCCCn1nnc3c(C)c(cc(Br)c31)[C@@H]2CC(=O)O [Example 48, [(8R)-11-Bromo-4,31-dimethyl-27,27-dioxo-21,26-dioxa-27λ^6-thia-1,14,15,16-tetraazahexacyclo[20.5.3.1^3,70.1^9,130.0^12,160.0^25,29]dotriaconta-3(32),4,6,9(31),10,12,14,22,24,29-decaen-8-yl]acetic acid] | 198
Cc1ccc2cc1CN1Cc3cc(ccc3OS1(=O)=O)OCCCCn1nnc3c(C)c(ccc31)[C@@H]2CC(=O)Nc1cccnc1 [Example 80b, 2-[(8R)-4,31-dimethyl-27,27-dioxo-21,26-dioxa-27λ^6-thia-1,14,15,16-tetraazahexacyclo[20.5.3.1^3,70.1^9,130.0^12,160.0^25,29]dotriaconta-3(32),4,6,9(31),10,12,14,22,24,29-decaen-8-yl]-N-(pyridin-3-yl)acetamide] | 2700
Cc1ccc2cc1CN1Cc3cc(ccc3OS1(=O)=O)OCCCCn1nnc3c(C)c(cc(-c4ccccc4)c31)[C@@H]2CC(=O)O (single isomer, unassigned) [Example 49] | 1620
Cc1ccc2cc1CN1Cc3cc(ccc3OS1(=O)=O)OCCSCCn1nnc3c(C)c(ccc31)C2CC(=O)O (stereo not shown) [Example 63b, [4,32-Dimethyl-28,28-dioxo-22,27-dioxa-19,28λ^6-dithia-1,14,15,16-tetraazahexacyclo[21.5.3.1^3,70.1^9,130.0^12,160.0^26,30]tritriaconta-3(33),4,6,9(32),10,12,14,23,25,30-decaen-8-yl]acetic acid] | 1220
COc1ccc2cc1[C@@H](C)N1Cc3cc(ccc3OS1(=O)=O)OCCOCCn1nnc3c(C)c(ccc31)[C@@H]2CC(=O)O [Example 41b] | > 3160
Cc1ccc2cc1CN1Cc3cc(ccc3OS1(=O)=O)OCCCCn1nnc3c(C)c(ccc31)[C@@H]2CC(=O)Nc1cncnc1 [Example 79a, 2-[(8R)-4,31-Dimethyl-27,27-dioxo-21,26-dioxa-27λ^6-thia-1,14,15,16-tetraazahexacyclo[20.5.3.1^3,70.1^9,130.0^12,160.0^25,29]dotriaconta-3(32),4,6,9(31),10,12,14,22,24,29-decaen-8-yl]-N-(pyrimidin-5-yl)acetamide] | 1120
Cc1c2ccc3c1nnn3CCCCOc1ccc3c(c1)CN([C@H](C)c1cc(ccc1Cl)[C@H]2CC(=O)O)S(=O)(=O)O3 [Example 64b, [(2R,8R)-4-chloro-2,31-dimethyl-27,27-dioxo-21,26-dioxa-27λ^6-thia-1,14,15,16-tetraazahexacyclo[20.5.3.1^3,70.1^9,130.0^12,160.0^25,29]dotriaconta-3(32),4,6,9(31),10,12,14,22,24,29-decaen-8-yl]acetic acid] | 231
Cc1ccc2cc1[C@@H](C)N1Cc3cc(cc(C)c3OS1(=O)=O)OCCCCn1nnc3c(C)c(ccc31)[C@H]2CC(=O)O [Example 29b, [(2R,8S)-2,4,24,31-tetramethyl-27,27-dioxo-21,26-dioxa-27λ^6-thia-1,14,15,16-tetraazahexacyclo[20.5.3.1^3,70.1^9,130.0^12,160.0^25,29]dotriaconta-3(32),4,6,9(31),10,12,14,22,24,29-decaen-8-yl]acetic acid] | 68.4
COc1ccc2cc1CN1Cc3cc(ccc3OS1(=O)=O)OCCN(C)CCCCn1nnc3c(C)c(ccc31)C2CC(=O)O (stereo not shown) [Example 47] | 288
Cc1ccc2cc1CN1Cc3cc(ccc3OS1(=O)=O)OCCC(c1ccc(C(F)(F)F)cc1)Cn1nnc3c(C)c(ccc31)C2CC(=O)O (stereo not shown) [Example 65, {4,31-Dimethyl-27,27-dioxo-18-[4-(trifluoromethyl)phenyl]-21,26-dioxa-27λ^6-thia-1,14,15,16-tetraazahexacyclo[20.5.3.1^3,70.1^9,130.0^12,160.0^25,29]dotriaconta-3(32),4,6,9(31),10,12,14,22,24,29-decaen-8-yl}acetic acid] | 699

same assay, conditions: read-out: CELLULAR U2OS EC50; U2OS Keap1-NRF2 nuclear translocation cells, 3 h incubation, luminescence, normalized between 1% DMSO and 10 μM andrographolide

SMILES | pEC50
Cc1ccc2cc1CN1Cc3cc(ccc3OS1(=O)=O)OCCCCn1nnc3c(C)c(ccc31)C2C(C)(C)C(=O)Nc1cncnc1 (single isomer, unassigned) [Example 81a, 2-[4,31-Dimethyl-27,27-dioxido-21,26-dioxa-27-thia-1,14,15,16-tetraazahexacyclo[20.5.3.1^3,70.1^9,130.0^12,160.0^25,29]dotriaconta-3(32),4,6,9(31),10,12,14,22,24,29-decaen-8-yl]-2-methyl-N-(pyrimidin-5-yl)propanamide] | 6.56
Cc1ccc2cc1CN1Cc3cc(ccc3OS1(=O)=O)OCCn1nnc3c(C)c(ccc31)C2CC(=O)O (stereo not shown) [Example 77b, [4,29-Dimethyl-25,25-dioxo-19,24-dioxa-25λ^6-thia-1,14,15,16-tetraazahexacyclo[18.5.3.1^3,70.1^9,130.0^12,160.0^23,27]triaconta-3(30),4,6,9(29),10,12,14,20,22,27-decaen-8-yl]acetic acid] | < 5.50
Cc1ccc2cc1CN1Cc3cc(ccc3OS1(=O)=O)OCC1CCN(CC1)CCn1nnc3c(C)c(ccc31)C2CC(=O)O (single isomer, unassigned) [Example 60b, [4,36-Dimethyl-30,30-dioxo-24,29-dioxa-30λ^6-thia-1,14,15,16,19-pentaazaheptacyclo[23.5.3.2^19,220.1^3,70.1^9,130.0^12,160.0^28,32]heptatriaconta-3(37),4,6,9(36),10,12,14,25,27,32-decaen-8-yl]acetic acid] | < 5.50
Cc1ccc2cc1CN1Cc3cc(ccc3OS1(=O)=O)OCCCCn1nnc3c(C)c(ccc31)C2C(C)(C)C(=O)O (single isomer, unassigned) [Example 74a, 2-[4,31-Dimethyl-27,27-dioxo-21,26-dioxa-27λ^6-thia-1,14,15,16-tetraazahexacyclo[20.5.3.1^3,70.1^9,130.0^12,160.0^25,29]dotriaconta-3(32),4,6,9(31),10,12,14,22,24,29-decaen-8-yl]-2-methylpropanoic acid] | 8.21
Cc1ccc2cc1CN1Cc3cc(ccc3OS1(=O)=O)OCc1ccccc1SCCCn1nnc3c(C)c(ccc31)C2CC(=O)O (single isomer, unassigned) [Example 67a, [4,38-Dimethyl-34,34-dioxo-28,33-dioxa-20,34λ^6-dithia-1,14,15,16-tetraazaheptacyclo[27.5.3.1^3,70.1^9,130.0^12,160.0^21,260.0^32,36]nonatriaconta-3(39),4,6,9(38),10,12,14,21,23,25,29,31,36-tridecaen-8-yl]acetic acid] | 6.26
Cc1ccc2cc1CN1Cc3cc(ccc3OS1(=O)=O)OCCCCn1nnc3c(C)c(ccc31)C2C(C)(C)C(=O)Nc1cccnc1 (single isomer, unassigned) [Example 82b, 2-[4,31-Dimethyl-27,27-dioxo-21,26-dioxa-27λ^6-thia-1,14,15,16-tetraazahexacyclo[20.5.3.1^3,70.1^9,130.0^12,160.0^25,29]dotriaconta-3(32),4,6,9(31),10,12,14,22,24,29-decaen-8-yl]-2-methyl-N-(pyridin-3-yl)propanamide] | < 5.50
Cc1ccc2cc1CN1Cc3cc(ccc3OS1(=O)=O)Oc1ccccc1NCCn1nnc3c(C)c(ccc31)C2CC(=O)O (single isomer, unassigned) [Example 70a, [4,36-Dimethyl-32,32-dioxo-26,31-dioxa-32λ^6-thia-1,14,15,16,19-pentaazaheptacyclo[25.5.3.1^3,70.1^9,130.0^12,160.0^20,250.0^30,34]heptatriaconta-3(37),4,6,9(36),10,12,14,20,22,24,27,29,34-tridecaen-8-yl]acetic acid] | 6.51

Reference: patent US12643912B2, “Macrocyclic compounds, a process for their preparation and pharmaceutical compositions containing them” (LES LABORATOIRES SERVIER, priority 2020, dated 2026)
